According to US20120258960A1, “NOVEL MULTIFUNCTIONAL PEPTIDASE INHIBITORS, ESPECIALLY FOR MEDICAL USE” (IMTM GMBH, priority 2009, published 2012):

What was measured:
[1] = test system: human peripheral blood mononuclear cells; assay: Inhibition of proliferation of PHA-stimulated mononuclear cells (BrdU incorporation); assay type: cell-based; details: PBMC, 1 μg/ml Phytohemagglutinine, 48 hours, test compounds 0.1-250 μM, read-out: MNC IC50
Description: (§1) Peripheral blood mononuclear cells (PBMC) from healthy human volunteers were freshly isolated by density gradient centrifugation. T lymphocytes (T cells, Tc) were isolated from PBMC fractions via nylon wool adherence. Cells were cultured in standard cell culture media and stimulated by addition of 1 μg/ml Phytohemagglutinine for 48 hours in 96 well flat-bottom microtitre plates. Test compounds were added at concentration ranges from 0.1-250 μM over the total assay period.
DNA synthesis of proliferating PBMC was assessed by incorporation of nucleotide analogue bromdesoxyuridine (BrdU) and subsequent detection of optical density (OD) at 450 nm.
(§2) Data output was based on raw data and calculation of relative proliferation response in relation to PHA-activated T cells in the absence of test compound (100% control).
(§3) The […] value of proliferation suppression was assessed by graphical evaluation.

T lymphocytes = assay: Inhibition of proliferation of PHA-stimulated T lymphocytes (tritium thymidine incorporation); assay type: cell-based; details: Homo sapiens, T-lymphocyte, 1 μg/ml Phytohemagglutinine, 48 hours, test compounds 0.1-250 μM, read-out: T cells IC50
Description: as §1
DNA synthesis of proliferating T cells was determined by incorporation of radio labelled tritium thymidine and subsequent radio detection.
as §2, §3

SMILES | IC50 [1] | IC50 (T lymphocytes)
NC(CNC(=O)c1cccc(NC(=O)C(O)C(N)Cc2ccccc2)c1)Cc1cc(F)ccc1F (stereo not shown) [drawing 277] | 27.2 µM | 21.4 µM
CCCCCCCCCCCCCCCC(=O)OC(C(=O)NCC(C)(C)CNC(=O)CC(N)Cc1cc(F)ccc1F)C(N)Cc1ccccc1 (stereo not shown) [drawing 249] | 35.8 µM | 34.4 µM
NC(CC(=O)NC(CCCNC(=O)C(O)C(N)Cc1ccccc1)C(=O)O)Cc1cc(F)ccc1F (stereo not shown) [drawing 241] | 70 µM | 113 µM
CC(C)(CNC(=O)CC(N)Cc1ccccc1)CNC(=O)C(O)C(N)Cc1ccccc1 (stereo not shown) [drawing 227] | 200 µM | ≥ 200 µM
NC(CC(=O)NCCNC(=O)C(O)C(N)Cc1ccccc1)Cc1ccccc1 (stereo not shown) [drawing 220] | 122 µM | ≥ 200 µM
NC(CC(=O)NCC1(CNC(=O)C(O)C(N)Cc2ccccc2)CCCC1)Cc1cc(F)ccc1F (stereo not shown) [drawing 274] | 16.2 µM | 12.9 µM
NC(CC(=O)NCCCCNC(=O)C(O)C(N)Cc1ccccc1)Cc1ccccc1 (stereo not shown) [drawing 229] | 200 µM | ≥ 200 µM
NC(CC(=O)NCCCCNC(=O)C(O)C(N)Cc1ccc(C(=O)O)cc1)Cc1cc(F)ccc1F (stereo not shown) [drawing 251] | 130 µM | 112 µM
CC(C)(CNC(=O)CC(N)Cc1ccccc1)CNC(=O)CC(O)C(N)Cc1ccccc1 (stereo not shown) [drawing 230] | 200 µM | ≥ 200 µM
CC(C)(CNC(=O)CC(N)Cc1cc(F)ccc1F)CNC(=O)C1OC(=O)NC1Cc1ccc(-c2ccccc2)cc1 (stereo not shown) [drawing 275] | 200 µM | 139 µM
NC(CC(=O)NCCNC(=O)CC(O)C(N)Cc1ccccc1)Cc1ccccc1 (stereo not shown) [drawing 224] | 120 µM | 157 µM
NC(CC(=O)NCCCCCNC(=O)C(O)C(N)Cc1ccccc1)Cc1ccccc1 (stereo not shown) [drawing 233] | 200 µM | ≥ 200 µM
CC(C)(CNCC(N)Cc1cc(F)ccc1F)CNC(=O)C(O)C(N)Cc1ccccc1 (stereo not shown) [drawing 276] | 30.6 µM | 30.3 µM
NC(CC(=O)N1CCN(C(=O)C(O)C(N)Cc2ccccc2)CC1)Cc1ccccc1 (stereo not shown) [drawing 223] | 140 µM | 157 µM
CCCCCCCCCCCCCCCC(=O)OC(C(=O)NCCCCNC(=O)CC(N)Cc1cc(F)ccc1F)C(N)Cc1ccccc1 (stereo not shown) [drawing 259] | 2.1 µM | 4.1 µM
NC(CC(=O)NCCCCNC(=O)C(O)C(N)Cc1ccc(Br)cc1)Cc1cc(F)ccc1F (stereo not shown) [drawing 267] | 200 µM | 58.1 µM
NC(CC(=O)NCCNC(=O)C(O)C(N)Cc1ccccc1)Cc1cc(F)ccc1F (stereo not shown) [drawing 221] | 200 µM | ≥ 200 µM
CCCCCCCC(=O)OC(C(=O)NCC(C)(C)CNC(=O)CC(N)Cc1cc(F)ccc1F)C(N)Cc1ccccc1 (stereo not shown) [drawing 247] | 5.8 µM | 7.4 µM
CCCCCCCC(=O)OC(C(=O)N(C)CCCNC(=O)CC(N)Cc1cc(F)ccc1F)C(N)Cc1ccccc1 (stereo not shown) [drawing 250] | 11.1 µM | 9.5 µM
NC(CC(=O)NCCCCNC(=O)C(O)C(N)Cc1ccccc1)Cc1cc(F)ccc1F (stereo not shown) [drawing 231] | 134 µM | ≥ 200 µM
CCCC(=O)NC(CC(=O)NCC(C)(C)CNC(=O)C(O)C(Cc1ccccc1)NC(=O)CCC)Cc1cc(F)ccc1F (stereo not shown) [drawing 244] | 54.5 µM | 53.9 µM
CC(C)(CNC(=O)CC(N)Cc1cc(F)ccc1F)CNC(=O)C(O)C(N)Cc1ccc(-c2ccccc2)cc1 (stereo not shown) [drawing 281] | 119 µM | 98.5 µM
CCCCCCCCCCCCCC(=O)OC(C(=O)NCC(C)(C)CNC(=O)CC(N)Cc1cc(F)ccc1F)C(N)Cc1ccccc1 (stereo not shown) [drawing 252] | 1.9 µM | 2 µM
NC(CC(=O)Nc1cccc(NC(=O)C(O)C(N)Cc2ccccc2)c1)Cc1cc(F)ccc1F (stereo not shown) [drawing 270] | 9.1 µM | 9.4 µM
CCCCCC(=O)OC(C(=O)NCC(C)(C)CNC(=O)CC(N)Cc1cc(F)ccc1F)C(N)Cc1ccccc1 (stereo not shown) [drawing 261] | 14.3 µM | 11.3 µM
NC(CC(=O)NCCNC(=O)C(O)C(N)Cc1ccccc1)Cc1ccc2ccccc2c1 (stereo not shown) [drawing 219] | 30.4 µM | 34 µM
